In brackets after ≈: the same amount, converted by molar mass.
Legend:
Solubility / nature = type: physicochemical
[1] = tested on: GM-CSF production by KM-102 cells; experiment: Stimulation of GM-CSF production (KM-102 cells; GM-CSF assayed by growth of TF-1 cells); type: cell-based, human; details: for EC50: Homo sapiens, 24 hours, TF-1 cell growth, read-out: ED50 for stimulation of GM-CSF production; for EC50 / induction of GM-CSF production (in words): KM-102 cells
Description: (§1) The ability of the leustroducsins to stimulate the production of hematopoietic factors in accordance with the present invention can, in principle, be assayed by the method by Kohama et al. [Experimental Hematology 16, 603-608 (1988)]. In this method, a production system for various hematopoietic factors and an assay system for various hematopoietic factors are combined. KM-102 cells, for example, which originated from human bone marrow stromal cells, my be employed to produce various hematopoietic factors. However, any cells capable of the production of various hematopoietic factors may be used instead, for example primary cultured bone marrow stromal cells, vascular endothelial cells, lymphocytes, or macrophages which exist in the bone marrow. A test sample of the compound whose activity is to be assessed is diluted to a suitable concentration and added the culture system containing the cells which produce various hematopoietic factors ("HF-producing cells"). After a suitable period, usually 24 hours, a part of the supernatant of the culture medium is taken, and added to a culture system of cells which are dependent on various hematopoietic factors, for example, TF-1 cells and NFS-60 cells, ("HF-dependent cells") at a suitable concentration. After a certain time, the amount of hematopoietic factors can be measured by measuring the growth of the HF-dependent cells, and thus the ability of the compound to stimulate the production of various hematopoietic factors can be assayed. The growth of the HF-dependent cells may be determined by any conventional method, such as the incorporation of tritium-thymidine by the cells or using an MTT [3-(4,5-dimethylthiazol-2-yl)-2,5-diphenyltetrazolium bromide] assay method (Chemicon International Inc., USA). The assay of various hematopoietic factors may be carried out by any conventional method, such as the colony-forming method or the ELISA method.
Determination of the stimulation of GM-CSF production by the compounds of the present invention was carried out, in principle, using a combination of the method of Kohama et al. [Experimental Hematology 16, 603-608 (1988)] and that of Kitamura et al. [Journal of Cellular Physiology 140, 323-334 (1989)]. In more detail, KM-102 cells originating from human bone marrow stromal cells, which served as to produce GM-CSF, were mixed with a test sample solution diluted to a suitable concentration (the "GM-CSF producing system"). After incubation for 24 hours, a part of the culture supernatant was taken and was added to a culture system of GM-CSF-dependent human TF-1 cells. After between 48 and 72 hours, the amount of GM-CSF was measured by the growth of TF-1 cells (the "GM-CSF assay system") to obtain a measure of the stimulation of GM-CSF production. The growth of TF-1 cells was determined by tritium thymidine pulse-labelling for 4 hours. Similar results were obtained also by means of an MTT kit (Chemicon International Inc. USA) to assay the growth of TF-1 cells and by means of an ELISA kit (Genzyme Inc. USA) to assay the GM-CSF. Whether the GM-CSF production inducing system functioned normally or not was assayed by means of recombinant interleukin 1β (IL-1β: Genzyme Inc. USA).

Acute toxicity = type: in vivo, ddY mice (male)
Protocol: According to the conventional procedure, the acute toxicity was tested in five ddY mice (male).

[2] = tested on: G-CSF production by KM-102 cells; experiment: Stimulation of G-CSF production (KM-102 cells; G-CSF assayed by growth of NFS-60 cells); type: cell-based, human; details: for EC50: Homo sapiens, 24 hours, NFS-60 cell growth, read-out: ED50 for stimulation of G-CSF production; for EC50 / induction of G-CSF production (in words): KM-102 cells
Description: as §1
Stimulation of G-CSF production was assayed by a system in which the GM-CSF assay system employed inTest Example 1 was replaced by a G-CSF assay system [as described by Shirafuji et al.: Experimental Hematology 17, 116-119 (1989)]. In more detail, KM-102 cells originating from human bone marrow stromal cells, which served to produce G-CSF, were added to a leustroducsin solution diluted to a suitable concentration (the "G-CSF producing system"). After incubation for 24 hours, a part of the culture supernatant was taken, and added to a culture system of G-CSF-dependent NFS-60 cells. After between 24 and 48 hours, the amount of G-CSF was assayed from the growth of NFS-60 cells (the "G-CSF assay system") to obtain a measure of the stimulation of G-CSF production. The growth of NFS-60 cells was determined by tritium-thymidine pulse-labelling for 4 hours. Similar results were also obtained by means of an MTT kit to assay the growth of NFS-60 cells and by means of an ELISA kit to assay the G-CSF [Motojima et al.: Journal of Immunological Methods 118, 187-192 (1989)]. Whether the G-CSF production inducing system functioned normally or not was assayed by means of recombinant interleukin 1 β (IL-1β: Genzyme Inc. USA).

[3] = similarly tested, dose not separately printed

Compound | Nature (Solubility / nature) | Solubility in hexane (Solubility / nature) | Solubility in organic solvents (Solubility / nature) | Solubility in water (Solubility / nature) | EC50 [1] [µg/mL] | induction of GM-CSF production (in words) [1] | acute toxicity (Acute toxicity; intraperitoneal, 0.2 mg/kg, 5 days, five mice) | EC50 [2] [µg/mL] | induction of G-CSF production (in words) [2] | acute toxicity (Acute toxicity; [3]) | induction of GM-CSF production by IL-1β (in words) ([1]; 1 to 100 units/ml) | induction by IL-1β, printed as GM-CSF production in the G-CSF test (in words) ([2]; 1 to 100 units/ml)
CCC1C=CC(=O)OC1/C=C/C(O)(CCN)C(CC(O)/C=C\C=C/C1CCCC(OC(=O)CCCC(C)C)C1)OP(=O)(O)O (centres unmarked) [Leustroducsin A] | Acidic and fat soluble | insoluble in hexane | Soluble in alcohols, such as methanol, ethanol or butanol; and soluble in acetone, chloroform, ethyl acetate and dimethyl sulfoxide | limited solubility in water | 0.18 | induced in a dose-dependent manner | no toxicity was observed | 0.2 (≈ 0.312 µM) | induced in a dose-dependent fashion | – | – | –
CCC(C)CCCCC(=O)OC1CCCC(/C=C\C=C/C(O)CC(OP(=O)(O)O)C(O)(/C=C/C2OC(=O)C=CC2CC)CCN)C1 (centres unmarked) [Leustroducsin B] | Acidic and fat soluble | insoluble in hexane | Soluble in alcohols, such as methanol, ethanol or butanol; and soluble in acetone, chloroform, ethyl acetate and dimethyl sulfoxide | limited solubility in water | 0.05 | induced in a dose-dependent manner | – | 0.05 (≈ 0.0746 µM) | induced in a dose-dependent fashion | no toxicity was observed | – | –
CCC1C=CC(=O)OC1/C=C/C(O)(CCN)C(CC(O)/C=C\C=C/C1CCCC(OC(=O)CCCCCC(C)C)C1)OP(=O)(O)O (centres unmarked) [Leustroducsin C] | Acidic and fat soluble | insoluble in hexane | Soluble in alcohols, such as methanol, ethanol or butanol; and soluble in acetone, chloroform, ethyl acetate and dimethyl sulfoxide | limited solubility in water | 0.05 | induced in a dose-dependent manner | – | 0.05 (≈ 0.0746 µM) | induced in a dose-dependent fashion | no toxicity was observed | – | –
IL-1β: recombinant interleukin 1β (IL-1β: Genzyme Inc. USA) | – | – | – | – | – | – | – | – | – | – | induced GM-CSF production in a dose-dependent manner | induced GM-CSF production in a dose-dependent fashion

— US5334587A, “Compounds, named the "Leustroducsins", their preparation and their therapeutic uses” (Sankyo Company, Limited, priority 1991, dated 1994)
